Laboratory results reported in patent US12208091B2, “Compounds for treatment of eye diseases associated with excessive vascularisation” (Active Biotech AB, priority 2019, dated 2025).
“Also recorded” adds a separate entry of the source.

What was measured:
relapsing MS patients = settings: clinical development program; cited from earlier work
[1] = test system: Human retinal microvascular endothelial cells (HRMECs); assay: Tube formation assay, combination with aflibercept (contemplated); assay type: cell-based; settings: 1 and 10 μM combined with Aflibercept (30 nM)
Description: Microglia, especially activated microglia play important roles in angiogenesis and maintenance of vascular function haemostasis in the retinal microvasculature (Ding et al 2018). It is contemplated that a co-culture of human retinal microvasculature endothelial cells (HRMEC's) and human microglia from brain can be used to assess the effects of a compound of the disclosure, such as laquinimod, tasquinimod, ABR-215174 or ABR-215691, on neovascularization. A method such as the one outlined below may be used.
This study may be carried out substantially as outlined in Example 3.
Tube formation assay is performed using 24-well plate wells coated with Matrigel or in 96-wells as described Ding et al. 2018 (Ding et al. BMC Ophthalmology (2018) 18:249): A 96-well plate is coated with 50 μL/well Matrigel at 37° C. for 30 min. After co-culturing with microglia for 24 h, HRMECs are seeded on the Matrigel at 1.5×10^4 cells/well in 100 μL medium. After a period of time, for example 4 h, tube formation is observed and photographed with a microscope (Leica Microsystems). Images are analysed using the Angiotool plugin (Zudaire et al., 2011, PLoS one, 6, 11, e27385) for ImageJ (NIH public domain). Total tube area, tube length, density, lacunarity, and branching index (number of junctions and endpoints) are quantified.

[2] = test system: Human retinal microvascular endothelial cells (HRMECs); assay: LPS-activated microglia-induced HRMEC tube formation (co-culture); assay type: cell-based; settings: 10 μM; normalised to vehicle 0%, sulforaphane 100%
Experimental: The following experimental groups were included in the study: • Group 1: […] Sulforaphane (10 μM, positive control, anti-angiogenic effects) • Group 3: Aflibercept (“Eylea” 40 μg/ml, positive control, partial anti-angiogenic effects) • Group 4: […] Human retinal microvascular endothelial cells (HRMECs) were purchased from Neuromics (Cat #HEC09, Lot #2872) and cultured according to manufacturer's instructions in Endo-Growth media (Cat #EKG001, Lot #EKG0011902269) supplemented with Endothelial Growth Factor (Cat #EKG001, Lot #EGK00125) on AlphaBiocoat coated T25 flasks at 37° C. 5% CO2. […] Human microglia were seeded onto PLL coated cell culture inserts (Sarstedt, Cat #83.3932.040) at 103 000 cells/cm^2. […] The method for co-cultures of microglia and HRMECs was modified from protocol described by Ding et al. 2018 (Ding X, Gu R, Zhang M, Ren H, Shu Q, Xu G, Wu H. Microglia enhanced the angiogenesis, migration and proliferation of co-cultured RMECs. […] PMID: 30223824; PMCID: PMC6142340) and Ji Cho et al. 2019 (Ji Cho M, Yoon […], Park J, Lee J, Park J G, Cho Y L, Hun Kim J, Jang H, Park Y J, Lee S H, Min J K. Oxidative stress-mediated TXNIP loss causes RPE dysfunction. […] PMID: 31615975; PMCID: PMC6802648). Microglia was activated with LPS (100 ng/ml) in microglia complete growth media without FBS with simultaneous treatment of freshly prepared study compounds, Eylea and vehicle for 24 hours. HRMECs were incubated in basal Endo-Growth media for 24 hours before co-culturing. […] Media in microglia inserts containing LPS was replaced to corresponding freshly prepared study compounds, aflibercept and sulforaphane in basal Endo-Growth media. […] 5% CO2, stained with calcein-AM (5 μM) for 30 min and imaged using a fluorescence microscope (Leica Thunder 3D Tissue Imager, Leica Microsystems). Images were analyzed using the AngioTool software (Zudaire E, Gambardella L, Kurcz […] Computational Tool for Quantitative Analysis of Vascular Networks. PLOS ONE 6(11): e27385. https://doi.org/10.1371/journal.pone.0027385) for ImageJ (NIH public domain). Total tube area, tube length, density, lacunarity, and branching index (number of junctions and endpoints) were quantified. Images were analyzed using AngioTool software (NIH, Bethesda, MD; available in the public domain) for the following readouts: average vessels length, total vessels length, vessel area, vessels percentage area, total number of junctions, density of junctions, total number of endpoints, and mean lacunarity. […] Raw data for each of the readouts was plotted and analyzed by ordinary one-way ANOVA with Dunnett's multiple comparisons post-hoc test. […] Effect size data were analyzed by non-parametric Kruskal-Wallis test, with Dunn's multiple comparisons post-hoc test.

[3] = test system: VEGF induced corneal vascularisation; assay: VEGF induced corneal vascularisation (pellet in corneal pocket), area of neovascularisation; assay type: in vivo, C57BL/6 mice; set-up: Area of vasc.: unit not given beside the values
Experimental: The area of the neovascularisation can be measured using the formula: Area=0.2·VL·CH·π wherein vessel length (VL) and continuous circumferential zone (in clock hours=CH) are measured as defined in FIG. 1. Treatment with Laquinimod of VEGF Induced Corneal Vascularisation
Hydron pellets for induction of vascularisation were prepared from stimulant (VEGF) and binding agent (sucralfate).
53 CR female C57BL/6 mice aged 6 to 8 weeks were prepared for surgery by anesthetising with 90 mg/kg of pentobarbital, ip. Corneal vascularisation was induced by placement of a pellet in a corneal pocket cut in one eye. Signs for ocular irritation or infection were carefully monitored.
[…] Vascularisation was measured on day 8.

[4] = group 4: 10 μg/animal topical bid ×7, measured day 8
[5] = group 5: 50 μg/animal topical bid ×7, measured day 8
[6] = group 6: 10 μg/animal topical qid ×7, measured day 8
[7] = group 7: 50 μg/animal topical qid ×7, measured day 8

**Q.** For `CCN(C(=O)c1c(O)c2c(Cl)cccc2n(C)c1=O)c1ccccc1` [laquinimod], which annual relapse rate (relapsing MS patients) is on record?
**A.** consistent clinical benefit

**Q.** What about the “effect on tube formation of combination compared to each compound used as monotherapy” value [1] of the same compound?
**A.** clear additive effect

**Q.** What about the “Normalized effect size on average vessel length” value [2] of the same compound?
**A.** 53%

**Q.** What about the “Inhibition of corneal vascularisation induced by VEGF” value (“Inhibition” for short) ([3]; 0.5 mg/kg bid, group 4) of the same compound?
**A.** did not provide for any inhibition; also recorded: no inhibition

**Q.** What about the “Inhibition” value ([3]; 0.5 mg/kg qid, group 6) of the same compound?
**A.** 8%

**Q.** What about the “Inhibition” value ([3]; 2.5 mg/kg bid, group 5) of the same compound?
**A.** 46%

**Q.** What about the “Inhibition” value ([3]; 2.5 mg/kg qid, group 7) of the same compound?
**A.** 50%

**Q.** And the Area of vasc. [3, 4]?
**A.** 1.49 ± 0.13

**Q.** What about the “Area percent of positive control” value [3, 4] of the same compound?
**A.** 101%

**Q.** And the Area of vasc. [3, 5]?
**A.** 0.79 ± 0.06

**Q.** And the “Area percent of positive control” value [3, 5]?
**A.** 54%

**Q.** What about the Area of vasc. [3, 6] of the same compound?
**A.** 1.35 ± 0.09

**Q.** And the “Area percent of positive control” value [3, 6]?
**A.** 92%

**Q.** And the Area of vasc. [3, 7]?
**A.** 0.74 ± 0.11

**Q.** And the “Area percent of positive control” value [3, 7]?
**A.** 50%
